Measurements from patent US20250154135A1, “M-CHOLINE RECEPTOR AGONIST COMPOUND, PREPARATION METHOD THEREFOR AND USE THEREOF” (NANJING GRITPHARMA CO., LTD., priority 2022, published 2025).
One block for each compound: values may come before it.

What was measured:
rabbit pupil = assay: Rabbit pupil constriction after single eye drop (Test Example 1); format: in vivo, New Zealand rabbit; conditions: rabbits, Test Example 1 solutions
Description: Except for group 5), the eye drop solutions of groups 1) to 12) described above contained an equimolar concentration of pilocarpine. The molar concentration of pilocarpine in the eye drop solution of group 5) was half of the molar concentration of pilocarpine in the solutions of the other 11 groups.
The effects of the eye drop solutions of groups 1) to 12) prepared above on rabbit pupil constriction and irritation were tested separately.
• Species and strain: New Zealand rabbit • Grade: normal • Source: Qinglongshan Animal Breeding Farm, Jiangning District, Nanjing • Production license No.: SCXK (Su) 2016-0008 • Animal age: about 110 days old at the time of administration • Animal body weight: about 2.5-3.5 kg at the time of administration • Animal sex: all male • Feed: rabbit pellet feed • Housing conditions: air-conditioned room, with a temperature of 18-26° C. and a relative humidity of 40%-80%.
• Digital vernier caliper: specification: 0-150 mm; measurement accuracy: 0.01 mm; manufacturer: Guilin Guanglu Measuring Instrument Co., Ltd.
Each rabbit was subjected to eye drop administration in the left eye (using a pipette), with an administration volume of 100 μL.
• Number of animals: for JQ series compounds, 6 rabbits per compound; for compounds 1, 2 and 4, 5 rabbits per compound. • Administration schedule: single administration. Measurement indicators and time points: • for JQ series compounds, the pupil diameter of the left eye of the rabbits was measured at time points of −0.5 h (i.e., half an hour before administration), 5 min, 10 min, 15 min, 0.5 h, 3 h and 4 h relative to administration, with the measurement repeated 3 times for each rabbit at each time point (measurement time points were extended if necessary); • for compounds 1, 2 and 4, the pupil diameter of the left eye of the rabbits was measured at time points of 3 h and 4 h relative to administration, with the measurement repeated 3 times for each rabbit at each time point (measurement time points were extended if necessary).
Percentage change in pupil diameter (%) after administration=(pupil diameter after administration−pupil diameter before administration)/pupil diameter before administration×100%
The measurement result for each rabbit at each time point was represented by the average value of three measurements.

[1] = Determination of salt-forming ratios of pilocarpine salt formulations (HPLC); format: physicochemical; conditions: for salt-forming ratios of the formulations: different conditions
Description: The determination of the salt-forming ratios of the pilocarpine salt formulations was performed using high-performance liquid chromatography with the following conditions: chromatographic column: C18 column; sample injection volume: 10 μL; mobile phase: K2HPO4 (adjusted to pH 6.50±0.1 with phosphoric acid)-methanol-acetonitrile (63:2:35); flow rate: 0.7 mL/min; column temperature: 30° C.; detection wavelength: 215 nm; […] determination was performed, and the salt-forming ratios were calculated according to the peak areas of free acid radicals and pilocarpine.
(§1) The samples were separately injected to determine the salt-forming ratios of different compound 1 formulations. Meanwhile, the salt-forming ratios of the compound 1 formulation solutions with different pH values under different conditions were determined using the above stability examination methods.
as §1, with “2” for “1”

[2] = formulation pH 4.8, 40° C./10 d
[3] = formulation pH 4.8, 60° C./10 d
[4] = formulation pH 4.8, Light irradiation/5 d
[5] = formulation pH 4.8, Light irradiation/10 d

salt-forming ratios of the formulations [1]: substantially stable | Salt-forming ratio ([1]; formulation pH 3.6, 0 d): 1.19 | Salt-forming ratio ([1]; formulation pH 3.6, 40° C./5 d): 1.08 | Salt-forming ratio ([1]; formulation pH 3.6, 40° C./10 d): 1.09 | Salt-forming ratio ([1]; formulation pH 3.6, 60° C./5 d): 1.15 | Salt-forming ratio ([1]; formulation pH 3.6, 60° C./10 d): 1.24 | Salt-forming ratio ([1]; formulation pH 3.6, Light irradiation/5 d): 1.06 | Salt-forming ratio ([1]; formulation pH 3.6, Light irradiation/10 d): 1.06 | Salt-forming ratio ([1]; formulation pH 4.1, 0 d): 1.03 | Salt-forming ratio ([1]; formulation pH 4.1, 40° C./5 d): 1.06 | Salt-forming ratio ([1]; formulation pH 4.1, 40° C./10 d): 1.06 | Salt-forming ratio ([1]; formulation pH 4.1, 60° C./5 d): 1.09 | Salt-forming ratio ([1]; formulation pH 4.1, 60° C./10 d): 1.10 | Salt-forming ratio ([1]; formulation pH 4.1, Light irradiation/5 d): 1.04 | Salt-forming ratio ([1]; formulation pH 4.1, Light irradiation/10 d): 1.04 | Salt-forming ratio ([1]; formulation pH 4.7, 0 d): 1.03 | Salt-forming ratio ([1]; formulation pH 4.7, 40° C./5 d): 1.04 | Salt-forming ratio ([1]; formulation pH 4.7, 40° C./10 d): 1.02 | Salt-forming ratio ([1]; formulation pH 4.7, 60° C./5 d): 1.02 | Salt-forming ratio ([1]; formulation pH 4.7, 60° C./10 d): 1.00 | Salt-forming ratio ([1]; formulation pH 4.7, Light irradiation/5 d): 1.03 | Salt-forming ratio ([1]; formulation pH 4.7, Light irradiation/10 d): 1.03 | Salt-forming ratio ([1]; formulation pH 4.8, 0 d): 1.02 | Salt-forming ratio ([1]; formulation pH 4.8, 40° C./5 d): 1.04 | Salt-forming ratio [1, 2]: 1.02 | Salt-forming ratio ([1]; formulation pH 4.8, 60° C./5 d): 0.99 | Salt-forming ratio [1, 3]: 0.97 | Salt-forming ratio [1, 4]: 1.03 | Salt-forming ratio [1, 5]: 1.02 | Salt-forming ratio ([1]; formulation pH 5.1, 0 d): 1.02 | Salt-forming ratio ([1]; formulation pH 5.1, 40° C./5 d): 1.03 | Salt-forming ratio ([1]; formulation pH 5.1, 40° C./10 d): 1.01 | Salt-forming ratio ([1]; formulation pH 5.1, 60° C./5 d): 0.97 | Salt-forming ratio ([1]; formulation pH 5.1, 60° C./10 d): 0.92 | Salt-forming ratio ([1]; formulation pH 5.1, Light irradiation/5 d): 1.03 | Salt-forming ratio ([1]; formulation pH 5.1, Light irradiation/10 d): 1.02 | Salt-forming ratio ([1]; formulation pH 5.6, 0 d): 1.02 | Salt-forming ratio ([1]; formulation pH 5.6, 40° C./5 d): 1.01 | Salt-forming ratio ([1]; formulation pH 5.6, 40° C./10 d): 0.98 | Salt-forming ratio ([1]; formulation pH 5.6, 60° C./5 d): 0.91 | Salt-forming ratio ([1]; formulation pH 5.6, 60° C./10 d): 0.85 | Salt-forming ratio ([1]; formulation pH 5.6, Light irradiation/5 d): 1.02 | Salt-forming ratio ([1]; formulation pH 5.6, Light irradiation/10 d): 1.01
SMILES: CC[C@@H]1C(=O)OC[C@@H]1Cc1cncn1C [Compound 1]
pupil constriction (miosis) effect at 3 h after administration (rabbit pupil): still showed miosis effect

salt-forming ratios of the formulations [1]: substantially stable | Salt-forming ratio ([1]; formulation pH 4.3, 0 d): 1.25 | Salt-forming ratio ([1]; formulation pH 4.3, 40° C./5 d): 1.14 | Salt-forming ratio ([1]; formulation pH 4.3, 40° C./10 d): 1.15 | Salt-forming ratio ([1]; formulation pH 4.3, 60° C./5 d): 1.17 | Salt-forming ratio ([1]; formulation pH 4.3, 60° C./10 d): 1.23 | Salt-forming ratio ([1]; formulation pH 4.3, Light irradiation/5 d): 1.12 | Salt-forming ratio ([1]; formulation pH 4.3, Light irradiation/10 d): 1.13 | Salt-forming ratio ([1]; formulation pH 4.5, 0 d): 1.00 | Salt-forming ratio ([1]; formulation pH 4.5, 40° C./5 d): 1.02 | Salt-forming ratio ([1]; formulation pH 4.5, 40° C./10 d): 1.01 | Salt-forming ratio ([1]; formulation pH 4.5, 60° C./5 d): 1.02 | Salt-forming ratio ([1]; formulation pH 4.5, 60° C./10 d): 1.01 | Salt-forming ratio ([1]; formulation pH 4.5, Light irradiation/5 d): 1.01 | Salt-forming ratio ([1]; formulation pH 4.5, Light irradiation/10 d): 1.01 | Salt-forming ratio ([1]; formulation pH 4.8, 0 d): 1.00 | Salt-forming ratio ([1]; formulation pH 4.8, 40° C./5 d): 1.01 | Salt-forming ratio [1, 2]: 1.00 | Salt-forming ratio ([1]; formulation pH 4.8, 60° C./5 d): 0.98 | Salt-forming ratio [1, 3]: 0.96 | Salt-forming ratio [1, 4]: 1.01 | Salt-forming ratio [1, 5]: 1.01 | Salt-forming ratio ([1]; formulation pH 5.0, 0 d): 1.00 | Salt-forming ratio ([1]; formulation pH 5.0, 40° C./5 d): 1.00 | Salt-forming ratio ([1]; formulation pH 5.0, 40° C./10 d): 0.99 | Salt-forming ratio ([1]; formulation pH 5.0, 60° C./5 d): 0.95 | Salt-forming ratio ([1]; formulation pH 5.0, 60° C./10 d): 0.92 | Salt-forming ratio ([1]; formulation pH 5.0, Light irradiation/5 d): 1.00 | Salt-forming ratio ([1]; formulation pH 5.0, Light irradiation/10 d): 1.00 | Salt-forming ratio ([1]; formulation pH 5.5, 0 d): 0.99 | Salt-forming ratio ([1]; formulation pH 5.5, 40° C./5 d): 0.98 | Salt-forming ratio ([1]; formulation pH 5.5, 40° C./10 d): 0.97 | Salt-forming ratio ([1]; formulation pH 5.5, 60° C./5 d): 0.90 | Salt-forming ratio ([1]; formulation pH 5.5, 60° C./10 d): 0.85 | Salt-forming ratio ([1]; formulation pH 5.5, Light irradiation/5 d): 1.00 | Salt-forming ratio ([1]; formulation pH 5.5, Light irradiation/10 d): 1.00
SMILES: CC[C@@H]1C(=O)OC[C@@H]1Cc1cncn1C [Compound 2]
pupil constriction (miosis) effect at 3 h after administration (rabbit pupil): still showed miosis effect
